Measured values taken from PubChem BioAssay (NCI).
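Here, GI50 denotes the concentration required for 50% inhibition of growth. TGI is the concentration that stops growth completely.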

Legend:
Experiment in all cases: NCI anticancer screen, dose series, 384-well format
A498 renal = system: A498 renal
A549 NSCLC = system: A549 NSCLC
ACHN renal = system: ACHN renal
BT-549 breast = system: BT-549 breast
CAKI-1 renal = system: CAKI-1 renal
COLO 205 colon = system: COLO 205 colon
DU-145 prostate = system: DU-145 prostate
EKVX NSCLC = system: EKVX NSCLC
HCC-2998 colon = system: HCC-2998 colon
HCT-116 colon = system: HCT-116 colon
HCT-15 colon = system: HCT-15 colon
HL-60(TB) leukemia = system: HL-60(TB) leukemia
HOP-92 NSCLC = system: HOP-92 NSCLC
HS 578T breast = system: HS 578T breast
HT29 colon = system: HT29 colon
KM12 colon = system: KM12 colon
LOX IMVI melanoma = system: LOX IMVI melanoma
M14 melanoma = system: M14 melanoma
MALME-3M melanoma = system: MALME-3M melanoma
MCF7 breast = system: MCF7 breast
MDA-MB-231 breast = system: MDA-MB-231 breast
MDA-MB-468 breast = system: MDA-MB-468 breast
MOLT-4 leukemia = system: MOLT-4 leukemia
NCI-H226 lung = system: NCI-H226 lung
NCI-H23 lung = system: NCI-H23 lung
NCI-H322M lung = system: NCI-H322M lung
NCI-H460 NSCLC = system: NCI-H460 NSCLC
NCI-H522 lung = system: NCI-H522 lung
OVCAR-3 ovarian = system: OVCAR-3 ovarian
OVCAR-8 ovarian = system: OVCAR-8 ovarian
PC-3 prostate = system: PC-3 prostate
RPMI-8226 leukemia = system: RPMI-8226 leukemia
RXF 393 renal = system: RXF 393 renal
SF-268 CNS = system: SF-268 CNS
SK-MEL-28 melanoma = system: SK-MEL-28 melanoma
SK-MEL-5 melanoma = system: SK-MEL-5 melanoma
SK-OV-3 ovarian = system: SK-OV-3 ovarian
SN12C renal = system: SN12C renal
SNB-19 CNS = system: SNB-19 CNS
SNB-75 CNS = system: SNB-75 CNS
SR leukemia = system: SR leukemia
U251 glioblastoma = system: U251 glioblastoma
UACC-257 melanoma = system: UACC-257 melanoma
UACC-62 melanoma = system: UACC-62 melanoma
786-0 renal = system: 786-0 renal
HOP-62 NSCLC = system: HOP-62 NSCLC
IGROV1 ovarian = system: IGROV1 ovarian
MDA-MB-435 melanoma = system: MDA-MB-435 melanoma
NCI/ADR-RES ovarian = system: NCI/ADR-RES ovarian
OVCAR-4 ovarian = system: OVCAR-4 ovarian
OVCAR-5 ovarian = system: OVCAR-5 ovarian
SF-295 CNS = system: SF-295 CNS
SF-539 CNS = system: SF-539 CNS
SW-620 colon = system: SW-620 colon
T-47D breast = system: T-47D breast
TK-10 renal = system: TK-10 renal
UO-31 renal = system: UO-31 renal

CCn1c(-c2nonc2N)nc2c(C#CC(C)(C)O)ncc(OC[C@H]3CCCNC3)c21
GI50 (A498 renal): < 0.01 µM
TGI (A498 renal): < 0.01 µM
GI50 (A549 NSCLC): 4.15 µM
TGI (A549 NSCLC): 22.7 µM
GI50 (ACHN renal): < 0.01 µM
TGI (ACHN renal): 0.129 µM
GI50 (BT-549 breast): < 0.01 µM
TGI (BT-549 breast): 2.13 µM
GI50 (CAKI-1 renal): 0.411 µM
TGI (CAKI-1 renal): 16.7 µM
GI50 (COLO 205 colon): 0.116 µM
TGI (COLO 205 colon): 12.1 µM
GI50 (DU-145 prostate): 0.0938 µM
TGI (DU-145 prostate): 13.8 µM
GI50 (EKVX NSCLC): 4.79 µM
TGI (EKVX NSCLC): 26.5 µM
GI50 (HCC-2998 colon): < 0.01 µM
TGI (HCC-2998 colon): 0.0209 µM
GI50 (HCT-116 colon): 1.47 µM
TGI (HCT-116 colon): 17.7 µM
GI50 (HCT-15 colon): 0.984 µM
TGI (HCT-15 colon): 64.2 µM
GI50 (HL-60(TB) leukemia): < 0.01 µM
TGI (HL-60(TB) leukemia): 0.101 µM
GI50 (HOP-92 NSCLC): < 0.01 µM
TGI (HOP-92 NSCLC): 21.7 µM
GI50 (HS 578T breast): < 0.01 µM
TGI (HS 578T breast): 14.2 µM
GI50 (HT29 colon): 0.199 µM
TGI (HT29 colon): 16.5 µM
GI50 (KM12 colon): 0.018 µM
TGI (KM12 colon): 14.4 µM
GI50 (LOX IMVI melanoma): 1.05 µM
TGI (LOX IMVI melanoma): 8.42 µM
GI50 (M14 melanoma): < 0.01 µM
TGI (M14 melanoma): < 0.01 µM
GI50 (MALME-3M melanoma): 0.183 µM
TGI (MALME-3M melanoma): 17.6 µM
GI50 (MCF7 breast): 0.0267 µM
TGI (MCF7 breast): 16.6 µM
GI50 (MDA-MB-231 breast): 2.62 µM
TGI (MDA-MB-231 breast): 16.7 µM
GI50 (MDA-MB-468 breast): 0.099 µM
TGI (MDA-MB-468 breast): 19.6 µM
GI50 (MOLT-4 leukemia): < 0.01 µM
TGI (MOLT-4 leukemia): < 0.01 µM
GI50 (NCI-H226 lung): 4.62 µM
TGI (NCI-H226 lung): 18.5 µM
GI50 (NCI-H23 lung): < 0.01 µM
TGI (NCI-H23 lung): 13.6 µM
GI50 (NCI-H322M lung): 0.0268 µM
TGI (NCI-H322M lung): 18.4 µM
GI50 (NCI-H460 NSCLC): 0.195 µM
TGI (NCI-H460 NSCLC): 11 µM
GI50 (NCI-H522 lung): 1.25 µM
TGI (NCI-H522 lung): 4.73 µM
GI50 (OVCAR-3 ovarian): 0.198 µM
TGI (OVCAR-3 ovarian): 15.2 µM
GI50 (OVCAR-8 ovarian): < 0.01 µM
TGI (OVCAR-8 ovarian): 17.6 µM
GI50 (PC-3 prostate): 0.0846 µM
TGI (PC-3 prostate): 14.2 µM
GI50 (RPMI-8226 leukemia): < 0.01 µM
TGI (RPMI-8226 leukemia): 0.283 µM
GI50 (RXF 393 renal): < 0.01 µM
TGI (RXF 393 renal): 19.2 µM
GI50 (SF-268 CNS): 6.19 µM
TGI (SF-268 CNS): 20.2 µM
GI50 (SK-MEL-28 melanoma): 4.69 µM
TGI (SK-MEL-28 melanoma): 20.4 µM
GI50 (SK-MEL-5 melanoma): < 0.01 µM
TGI (SK-MEL-5 melanoma): 0.19 µM
GI50 (SK-OV-3 ovarian): 0.0422 µM
TGI (SK-OV-3 ovarian): 12.7 µM
GI50 (SN12C renal): 0.0908 µM
TGI (SN12C renal): 12.4 µM
GI50 (SNB-19 CNS): 0.495 µM
TGI (SNB-19 CNS): 15.2 µM
GI50 (SNB-75 CNS): 0.216 µM
TGI (SNB-75 CNS): 17.1 µM
GI50 (SR leukemia): < 0.01 µM
TGI (SR leukemia): < 0.01 µM
GI50 (U251 glioblastoma): 1.08 µM
TGI (U251 glioblastoma): 14.4 µM
GI50 (UACC-257 melanoma): 2 µM
TGI (UACC-257 melanoma): 16.7 µM
GI50 (UACC-62 melanoma): 0.22 µM
TGI (UACC-62 melanoma): 16.8 µM

COc1cc2nccc(Oc3ccc(NC(=O)Nc4cc(C)on4)c(Cl)c3)c2cc1OC
GI50 (786-0 renal): 3.79 µM
TGI (786-0 renal): 12 µM
GI50 (A498 renal): 5.6 µM
TGI (A498 renal): 21 µM
GI50 (A549 NSCLC): 3.25 µM
TGI (A549 NSCLC): 11 µM
GI50 (ACHN renal): 3.53 µM
TGI (ACHN renal): 11.6 µM
GI50 (BT-549 breast): 3.2 µM
TGI (BT-549 breast): 7.18 µM
GI50 (CAKI-1 renal): 2.67 µM
TGI (CAKI-1 renal): 6.87 µM
GI50 (COLO 205 colon): 2.59 µM
TGI (COLO 205 colon): 8.26 µM
GI50 (DU-145 prostate): 5.63 µM
TGI (DU-145 prostate): 81.3 µM
GI50 (EKVX NSCLC): 4.4 µM
TGI (EKVX NSCLC): 20.9 µM
GI50 (HCC-2998 colon): 23.9 µM
TGI (HCC-2998 colon): 91.9 µM
GI50 (HCT-116 colon): 3.51 µM
TGI (HCT-116 colon): 11.5 µM
GI50 (HCT-15 colon): 4.16 µM
TGI (HCT-15 colon): > 100 µM
GI50 (HL-60(TB) leukemia): 2.87 µM
TGI (HL-60(TB) leukemia): 5.3 µM
GI50 (HOP-62 NSCLC): 9.77 µM
TGI (HOP-62 NSCLC): > 100 µM
GI50 (HOP-92 NSCLC): 1.7 µM
TGI (HOP-92 NSCLC): 3.33 µM
GI50 (HS 578T breast): 2.08 µM
TGI (HS 578T breast): 7.41 µM
GI50 (HT29 colon): 3.17 µM
TGI (HT29 colon): 12.1 µM
GI50 (IGROV1 ovarian): 2.22 µM
TGI (IGROV1 ovarian): 5.21 µM
GI50 (KM12 colon): 0.346 µM
TGI (KM12 colon): > 100 µM
GI50 (LOX IMVI melanoma): 4.08 µM
TGI (LOX IMVI melanoma): 11 µM
GI50 (M14 melanoma): 3.72 µM
TGI (M14 melanoma): 15.3 µM
GI50 (MALME-3M melanoma): 1.81 µM
TGI (MALME-3M melanoma): 4.39 µM
GI50 (MCF7 breast): 4.99 µM
TGI (MCF7 breast): 31.6 µM
GI50 (MDA-MB-231 breast): 2.38 µM
TGI (MDA-MB-231 breast): 6.83 µM
GI50 (MDA-MB-435 melanoma): 7.46 µM
TGI (MDA-MB-435 melanoma): 73.4 µM
GI50 (MDA-MB-468 breast): 3.51 µM
TGI (MDA-MB-468 breast): 8.5 µM
GI50 (MOLT-4 leukemia): 1.45 µM
TGI (MOLT-4 leukemia): 2.99 µM
GI50 (NCI-H226 lung): 0.906 µM
TGI (NCI-H226 lung): 3.39 µM
GI50 (NCI-H23 lung): 2.65 µM
TGI (NCI-H23 lung): 7.77 µM
GI50 (NCI-H322M lung): 3.91 µM
TGI (NCI-H322M lung): 13.9 µM
GI50 (NCI-H460 NSCLC): 4.58 µM
TGI (NCI-H460 NSCLC): 19 µM
GI50 (NCI-H522 lung): 2.51 µM
TGI (NCI-H522 lung): 6.54 µM
GI50 (NCI/ADR-RES ovarian): 2.9 µM
TGI (NCI/ADR-RES ovarian): 8.81 µM
GI50 (OVCAR-3 ovarian): 5.25 µM
TGI (OVCAR-3 ovarian): 20.1 µM
GI50 (OVCAR-4 ovarian): 5.71 µM
TGI (OVCAR-4 ovarian): 25 µM
GI50 (OVCAR-5 ovarian): 4.4 µM
TGI (OVCAR-5 ovarian): 21.2 µM
GI50 (OVCAR-8 ovarian): 4.45 µM
TGI (OVCAR-8 ovarian): 41 µM
GI50 (PC-3 prostate): 6.29 µM
TGI (PC-3 prostate): > 100 µM
GI50 (RPMI-8226 leukemia): 3.79 µM
TGI (RPMI-8226 leukemia): 15.1 µM
GI50 (RXF 393 renal): 1.65 µM
TGI (RXF 393 renal): 4.28 µM
GI50 (SF-268 CNS): 3.06 µM
TGI (SF-268 CNS): 8.86 µM
GI50 (SF-295 CNS): 3.18 µM
TGI (SF-295 CNS): 11.5 µM
GI50 (SF-539 CNS): 1.24 µM
TGI (SF-539 CNS): 2.95 µM
GI50 (SK-MEL-28 melanoma): 4.26 µM
TGI (SK-MEL-28 melanoma): 21 µM
GI50 (SK-MEL-5 melanoma): 3.35 µM
TGI (SK-MEL-5 melanoma): 11.8 µM
GI50 (SK-OV-3 ovarian): 6.78 µM
TGI (SK-OV-3 ovarian): 67.1 µM
GI50 (SN12C renal): 2.95 µM
TGI (SN12C renal): 9.88 µM
GI50 (SNB-19 CNS): 16.6 µM
TGI (SNB-19 CNS): > 100 µM
GI50 (SNB-75 CNS): 2.53 µM
TGI (SNB-75 CNS): 6.7 µM
GI50 (SR leukemia): 3.73 µM
TGI (SR leukemia): 5.34 µM
GI50 (SW-620 colon): 2.82 µM
TGI (SW-620 colon): 7.18 µM
GI50 (T-47D breast): 4.17 µM
TGI (T-47D breast): 23.1 µM
GI50 (TK-10 renal): 19.9 µM
TGI (TK-10 renal): > 100 µM
GI50 (U251 glioblastoma): 9.48 µM
TGI (U251 glioblastoma): > 100 µM
GI50 (UACC-257 melanoma): 11.9 µM
TGI (UACC-257 melanoma): 30.3 µM
GI50 (UACC-62 melanoma): 2.9 µM
TGI (UACC-62 melanoma): 13.5 µM
GI50 (UO-31 renal): 2.75 µM
TGI (UO-31 renal): 5.98 µM
